# Measured values published in PubChem BioAssay AID330 (DTP/NCI, 2004).
# Where “and” joins values, the source holds several entries; their conditions need not be identical. Equal values may be shown once. Toxic doses and inconclusive results are not listed.
# Test system: P388 leukemia ip, CD2F1 mice, survival T/C
# Experiment: NCI In Vivo Anticancer Drug Screen. Data for tumor model P388 Leukemia (intraperitoneal) in CD2F1 (CDF1) mice
# Details: endpoint: median survival time, higher = longer survival
# How it was run: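 Mice carrying the transplanted tumor received test compound or vehicle. Survival was recorded in each group, and the value is the treated-group measurement divided by that of the vehicle-treated control group.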
# [1] = dose: 50.0 mg/kg/injection, schedule: Q01DX009 (ip), vehicle: saline with Tween-80
# [2] = dose: 100.0 mg/kg/injection, schedule: Q01DX009 (ip), vehicle: saline with Tween-80
# [3] = dose: 200.0 mg/kg/injection, schedule: Q01DX009 (ip), vehicle: saline with Tween-80
# [4] = dose: 50.0 mg/kg/injection, schedule: Q01DX009 (ip), vehicle: suspension in saline
# [5] = dose: 100.0 mg/kg/injection, schedule: Q01DX009 (ip), vehicle: suspension in saline
# [6] = dose: 200.0 mg/kg/injection, schedule: Q01DX009 (ip), vehicle: suspension in saline
# [7] = dose: 60.0 mg/kg/injection, schedule: Q01DX005 (ip), vehicle: saline with Tween-80
# [8] = dose: 120.0 mg/kg/injection, schedule: Q01DX005 (ip), vehicle: saline with Tween-80
# [9] = dose: 100.0 mg/kg/injection, schedule: Q01DX001 (ip), vehicle: saline with Tween-80
# [10] = dose: 50.0 mg/kg/injection, schedule: Q01DX009 (ip), vehicle: Klucel (hydroxypropylcellulose) (HPC)
# [11] = dose: 100.0 mg/kg/injection, schedule: Q01DX009 (ip), vehicle: Klucel (hydroxypropylcellulose) (HPC)
# [12] = dose: 200.0 mg/kg/injection, schedule: Q01DX009 (ip), vehicle: Klucel (hydroxypropylcellulose) (HPC)
# [13] = dose: 50.0 mg/kg/injection, schedule: Q01DX005 (ip), vehicle: Klucel (hydroxypropylcellulose) (HPC)
# [14] = dose: 100.0 mg/kg/injection, schedule: Q01DX005 (ip), vehicle: Klucel (hydroxypropylcellulose) (HPC)
# [15] = dose: 200.0 mg/kg/injection, schedule: Q01DX005 (ip), vehicle: Klucel (hydroxypropylcellulose) (HPC)
smiles,measurement,setting,value
O=NN(C(=O)NC1CCCC1)C1CCCC1,T/C,"dose: 25.0 mg/kg/injection, schedule: Q01DX001 (ip), vehicle: distilled water + Tween-80",106 % of control
same,T/C,"dose: 50.0 mg/kg/injection, schedule: Q01DX001 (ip), vehicle: distilled water + Tween-80",105 % of control
same,T/C,"dose: 100.0 mg/kg/injection, schedule: Q01DX001 (ip), vehicle: distilled water + Tween-80",108 % of control
same,T/C,"dose: 200.0 mg/kg/injection, schedule: Q01DX001 (ip), vehicle: distilled water + Tween-80",110 % of control
same,T/C,"dose: 400.0 mg/kg/injection, schedule: Q01DX001 (ip), vehicle: distilled water + Tween-80",110 % of control
Cc1cc(O)c(C=O)c2c1C(=O)Oc1c(CO)c(O)c3c(c1O2)C(O)OC3=O (stereo unspecified),T/C,[1],124 % of control
C1CCC(N2OC23CCCCC3)CC1 (stereo unspecified),T/C,"dose: 25.0 mg/kg/injection, schedule: Q01DX009 (ip), vehicle: saline with Tween-80",113 % of control
same,T/C,[1],117 % of control
same,T/C,[2],123 % of control
same,T/C,[3],113 % of control
O=C(Nc1cccc(C2=NCCCN2)c1)Nc1ccc(NC(=O)Nc2cccc(C3=NCCCN3)c2)c(Cl)c1,T/C,"dose: 0.6 mg/kg/injection, schedule: Q04DX003 (ip), vehicle: saline",109 % of control
same,T/C,"dose: 1.25 mg/kg/injection, schedule: Q04DX003 (ip), vehicle: saline",109 % of control
same,T/C,"dose: 2.5 mg/kg/injection, schedule: Q04DX003 (ip), vehicle: saline",109 % of control
same,T/C,"dose: 10.0 mg/kg/injection, schedule: Q04DX003 (ip), vehicle: saline with Tween-80",170 % of control
same,T/C,"dose: 20.0 mg/kg/injection, schedule: Q04DX003 (ip), vehicle: saline",164 % of control
same,T/C,"dose: 26.4 mg/kg/injection, schedule: Q04DX003 (ip), vehicle: saline with Tween-80",183 % of control
same,T/C,"dose: 40.0 mg/kg/injection, schedule: Q04DX003 (ip), vehicle: saline",204 % of control
Cc1c(C)[n+](=O)c2ccc(C=O)cc2n1[O-],T/C,[4],97 % of control
same,T/C,[5],94 % of control
same,T/C,[6],94 % of control
Fc1cccc(NC(=S)SCc2ccco2)c1,T/C,[4],93 % of control
same,T/C,[5],90 % of control
same,T/C,[6],107 % of control
COc1cc([N+](=O)[O-])c(S(=O)(=O)O)cc1N,T/C,[7],99 % of control
same,T/C,[8],94 % of control
same,T/C,"dose: 240.0 mg/kg/injection, schedule: Q01DX005 (ip), vehicle: saline with Tween-80",93 % of control
CS(=O)(=O)OC1COCC1OS(C)(=O)=O (stereo unspecified),T/C,"dose: 100.0 mg/kg/injection, schedule: Q01DX001 (ip), vehicle: Klucel (hydroxypropylcellulose) (HPC)",95 % of control
same,T/C,"dose: 100.0 mg/kg/injection, schedule: Q04DX003 (ip), vehicle: Klucel (hydroxypropylcellulose) (HPC)",99 % of control
same,T/C,"dose: 200.0 mg/kg/injection, schedule: Q01DX001 (ip), vehicle: Klucel (hydroxypropylcellulose) (HPC)",95 % of control
same,T/C,"dose: 200.0 mg/kg/injection, schedule: Q04DX003 (ip), vehicle: Klucel (hydroxypropylcellulose) (HPC)",100 % of control
same,T/C,"dose: 400.0 mg/kg/injection, schedule: Q01DX001 (ip), vehicle: Klucel (hydroxypropylcellulose) (HPC)",100 % of control
same,T/C,"dose: 400.0 mg/kg/injection, schedule: Q04DX003 (ip), vehicle: Klucel (hydroxypropylcellulose) (HPC)",107 % of control
CC(=O)n1c(Cl)c(/C=N/NS(=O)(=O)c2ccc(C)cc2)c2ccccc21,T/C,"dose: 25.0 mg/kg/injection, schedule: Q01DX001 (ip), vehicle: saline with Tween-80",100 % of control
same,T/C,"dose: 50.0 mg/kg/injection, schedule: Q01DX001 (ip), vehicle: saline with Tween-80",86 % of control and 88 % of control
same,T/C,[9],91 % of control
Cc1ccc(S(=O)(=O)N/N=C/c2ccoc2)cc1,T/C,"dose: 12.5 mg/kg/injection, schedule: Q01DX005 (ip), vehicle: distilled water + Tween-80",100 % of control
same,T/C,"dose: 25.0 mg/kg/injection, schedule: Q01DX005 (ip), vehicle: distilled water + Tween-80",102 % of control
same,T/C,"dose: 50.0 mg/kg/injection, schedule: Q01DX005 (ip), vehicle: distilled water + Tween-80",93 % of control
same,T/C,"dose: 100.0 mg/kg/injection, schedule: Q01DX005 (ip), vehicle: distilled water + Tween-80",102 % of control
same,T/C,"dose: 200.0 mg/kg/injection, schedule: Q01DX005 (ip), vehicle: distilled water + Tween-80",100 % of control
CCCCC(CC)CN1CN2CN(CC(CC)CCCC)CC2(C)C1 (stereo unspecified),T/C,"dose: 12.5 mg/kg/injection, schedule: Q01DX005 (ip), vehicle: saline with Tween-80",100 % of control
same,T/C,"dose: 25.0 mg/kg/injection, schedule: Q01DX005 (ip), vehicle: saline with Tween-80",105 % of control
same,T/C,"dose: 50.0 mg/kg/injection, schedule: Q01DX005 (ip), vehicle: saline with Tween-80",104 % of control and 105 % of control
Cn1nc(CC#N)c2c(=N)n(N)cnc21,T/C,"dose: 25.0 mg/kg/injection, schedule: Q01DX009 (ip), vehicle: Klucel (hydroxypropylcellulose) (HPC)",119 % of control
same,T/C,[10],109 % of control
same,T/C,[11],104 % of control
same,T/C,[12],113 % of control
O=C1/C(=C/c2cccc(O)c2O)SC(=S)N1Cc1ccco1,T/C,[13],102 % of control
same,T/C,[14],106 % of control
same,T/C,[15],103 % of control
Nc1nc2c(=O)[nH]c(=O)[nH]c2n1C1OC(CO)C(O)C1O (stereo unspecified),T/C,[7],117 % of control
C=Cn1c([N+](=O)[O-])cnc1/C=C\c1ccc(C(=O)NC(C)C)cc1,T/C,"dose: 100.0 mg/kg/injection, schedule: Q04DX002 (ip), vehicle: gum acacia",92 % of control
same,T/C,"dose: 200.0 mg/kg/injection, schedule: Q04DX002 (ip), vehicle: gum acacia",96 % of control
same,T/C,"dose: 400.0 mg/kg/injection, schedule: Q04DX002 (ip), vehicle: gum acacia",92 % of control
CCOc1nc2ccc(NC(C)C(=O)N3CCN(CCc4ccccc4)CC3)cc2s1 (stereo unspecified),T/C,[13],100 % of control
same,T/C,[14],100 % of control
same,T/C,[15],112 % of control
Clc1ccc(C(c2ccccc2)N2CCNCC2)cc1 (stereo unspecified),T/C,"dose: 25.0 mg/kg/injection, schedule: Q04DX003 (ip), vehicle: saline with Tween-80",99 % of control
same,T/C,"dose: 50.0 mg/kg/injection, schedule: Q04DX003 (ip), vehicle: saline with Tween-80",113 % of control
same,T/C,"dose: 100.0 mg/kg/injection, schedule: Q04DX003 (ip), vehicle: saline with Tween-80",102 % of control
CCC(CO)N=C(C1=C(O)c2ccccc2C1=O)c1ccccc1 (stereo unspecified),T/C,"dose: 100.0 mg/kg/injection, schedule: Q04DX002 (ip), vehicle: saline with Tween-80",104 % of control
same,T/C,"dose: 200.0 mg/kg/injection, schedule: Q04DX002 (ip), vehicle: saline with Tween-80",92 % of control
CC(C)(C)C(CO)CNc1ccccc1 (stereo unspecified),T/C,[10],110 % of control
same,T/C,[11],110 % of control
same,T/C,[12],107 % of control
CCOC(=O)NN(CC(=O)OCc1ccccc1)N=O,T/C,"dose: 12.5 mg/kg/injection, schedule: Q01DX009 (ip), vehicle: other",109 % of control
same,T/C,"dose: 25.0 mg/kg/injection, schedule: Q01DX009 (ip), vehicle: other",94 % of control
same,T/C,"dose: 50.0 mg/kg/injection, schedule: Q01DX009 (ip), vehicle: other",100 % of control
same,T/C,"dose: 100.0 mg/kg/injection, schedule: Q01DX009 (ip), vehicle: other",102 % of control
same,T/C,"dose: 200.0 mg/kg/injection, schedule: Q01DX009 (ip), vehicle: other",98 % of control
CN(C)c1ccc2c(Nc3ccc(NS(C)(=O)=O)cc3)c3ccc(N(C)C)cc3nc2c1,T/C,"dose: 25.0 mg/kg/injection, schedule: Q01DX005 (ip), vehicle: Klucel (hydroxypropylcellulose) (HPC)",161 % of control
same,T/C,[13],153 % of control and 155 % of control
same,T/C,[14],172 % of control and 212 % of control
same,T/C,[15],173 % of control and 216 % of control
CC(=O)C(CO)C(=O)Nc1ccccc1 (stereo unspecified),T/C,[1],100 % of control
same,T/C,[2],95 % of control
same,T/C,[3],95 % of control
Cc1ccc(SCc2c(COc3ccc(Cl)cc3)sc3ccc(Cl)cc23)cc1,T/C,[9],90 % of control
same,T/C,"dose: 200.0 mg/kg/injection, schedule: Q01DX001 (ip), vehicle: saline with Tween-80",86 % of control
same,T/C,"dose: 400.0 mg/kg/injection, schedule: Q01DX001 (ip), vehicle: saline with Tween-80",100 % of control
Cc1ccc(S(=O)(=O)NCCCc2ccccc2)cc1,T/C,[10],118 % of control
same,T/C,[11],123 % of control
same,T/C,[12],115 % of control
